Laboratory results published in US11661397B2, “1,4-disubstituted imidazole derivative” (Sumitomo Pharma Co., Ltd., priority 2015, dated 2023).
Several values for one entry are separate records, joined by “and”; a condition that tells them apart may be missing. Equal entries are not always repeated.

Key:
HCT-116 cells [1] = test: Inhibition of sphere-forming ability of cancer cells (Test Example 1); assay type: cell-based; settings: Homo sapiens, 96 h; HCT-116 spheres, non-adherent, serum-free, 4 days, CellTiter-Glo; read-out: Sphere IC50 value (concentration for 50% inhibition of cell proliferation)
Procedure: (§1) HCT-116 cells were available from the American Type Culture Collection (ATCC). HCT-116 cells were cultured at 37° C. and 5% CO2 using the McCoy's 5a medium containing 10% fetal bovine serum (FBS) and 1% penicillin/streptomycin. […] The test compounds were added into each well to adjust the final concentration of DMSO to 0.1%, and the cells were cultured for 4 days.

HCT-116 cells [2] = test: Test for inhibiting sphere-forming ability of cancer cells in the presence of BSA (Test Example 2); assay type: cell-based; settings: Homo sapiens, 96 h; HCT-116 spheres, 5% bovine serum albumin (BSA), 4 days, CellTiter-Glo; read-out: Sphere IC50 value (concentration for 50% inhibition of cell proliferation)
Procedure: as §1

[3] = system: HCT-116 tumor-bearing mouse; test: Anti-tumor effect to HCT-116 tumor-bearing mouse (Test Example 4); assay type: in vivo; settings: nude mouse, oral
Text: The present compound can be used to evaluate the anti-tumor effect thereof. A 4 to 7-week-old nude mouse (BALB/cAnNCrj-nu/nu, female, CHARLES RIVER LABORATORIES JAPAN, INC.) received intradermal transplantation of HCT-116 cells (ATCC) in an amount of 3×10^6 cells/mouse around the ventral portion. The engraftment of HCT-116 cells was observed 5 to 14 days after the transplantation, and then each compound suspended in a solvent such as 0.5% methylcellulose solution was orally administrated to the mouse in a dose of 1 to 100 mg/kg one to twice daily. The tumor volume was measured over time after the administration to evaluate the effect for reducing the tumor volume by the administration of each compound. The tumor volume can be calculated from the minor axis and the major axis of the tumor measured with a digital caliper (Mitutoyo) according to the following formula: Tumor volume [mm^3]=0.5×minor axis [mm]×(major axis [mm])^2
The tumor volume in control administration group treated with only a solvent such as 0.5% methylcellulose solution was compared with that of the present compound administration group, and T/C value was calculated according the following formula to evaluate the anti-tumor effect of the present compound. T/C (%)=(the tumor volume at the end of administration in the present compound administration group−the tumor volume at the start of administration in the present compound administration group)/(the tumor volume at the end of administration in the control administration group−the tumor volume at the start of administration in the […] administration group)×100
The T/C values (%) of the present compound on each dosage and administration period in the HCT-116 tumor-bearing mouse are shown below.

[4] = dosage 30 mg/kg, administration period 17 days
[5] = dosage 100 mg/kg, administration period 17 days

Row | Structure (SMILES) | IC50 (HCT-116 cells [1]) | IC50 (HCT-116 cells [2]) | T/C (%) ([3]; dosage 100 mg/kg, administration period 16 days) | T/C (%) [3, 4] | T/C (%) [3, 5]
1 | O=C(Nc1cn(Cc2cccc(C(F)(F)F)c2)cn1)c1ccc(CO)nc1 [Example 12, 6-(hydroxymethyl)-N-{1-[3-(trifluoromethyl)benzyl]-1H-imidazol-4-yl}nicotinamide] | < 10 nM | 60 nM | 49% |  | 
2 | O=C(Nc1cn(Cc2cc(F)c(F)c(F)c2)cn1)c1cnc(CO)c(C(F)F)c1 [Example 18, 5-(difluoromethyl)-6-(hydroxymethyl)-N-[1-(3,4,5-trifluorobenzyl)-1H-imidazol-4-yl]nicotinamide] | < 10 nM | 53 nM |  | 63% | 54%
3 | Cc1cc(C(=O)Nc2cn(Cc3cc(F)c(F)c(F)c3)cn2)cnc1CO [Example 39, 6-(hydroxymethyl)-5-methyl-N-[1-(3,4,5-trifluorobenzyl)-1H-imidazol-4-yl]nicotinamide] | < 10 nM | < 10 nM |  | 79% | 65%
4 | O=C(Nc1cn(Cc2cc(F)cc(Cl)c2)cn1)c1cnc(CO)c(C(F)F)c1 [Example 78, N-[1-(3-chloro-5-fluorobenzyl)-1H-imidazol-4-yl]-5-(difluoromethyl)-6-(hydroxymethyl)nicotinamide] | 50 nM | 60 nM |  |  | 
5 | O=C(Nc1cn(Cc2cc(F)cc(F)c2)cn1)c1cnc(CO)c(C(F)F)c1 [Example 79, N-[1-(3,5-difluorobenzyl)-1H-imidazol-4-yl]-5-(difluoromethyl)-6-(hydroxymethyl)nicotinamide] | 80 nM | 60 nM |  |  | 

The next lines start with results.

Row | IC50 (HCT-116 cells [1]) | IC50 (HCT-116 cells [2]) | Structure (SMILES) | T/C (%) ([3]; dosage 100 mg/kg, administration period 16 days) | T/C (%) [3, 4] | T/C (%) [3, 5]
6 | < 10 nM | 57 nM | O=C(Nc1cn(Cc2cccc(C(F)(F)F)c2)cn1)c1cnc(CO)c(C(F)F)c1 [Example 17, 5-(difluoromethyl)-6-(hydroxymethyl)-N-{1-[3-(trifluoromethyl)benzyl]-1H-imidazol-4-yl}nicotinamide] |  | 74% | 75%
7 | 29 nM | 59 nM | Nc1cc(C(=O)Nc2cn(Cc3cccc(C(F)(F)F)c3)cn2)cnc1CO [Example 45, 5-Amino-6-(hydroxymethyl)-N-{1-[3-(trifluoromethyl)benzyl]-1H-imidazol-4-yl}nicotinamide] |  | 90% and 91% | 81%
8 | 10 nM | 57 nM | Nc1cc(C(=O)Nc2cn(Cc3cc(F)c(F)c(F)c3)cn2)cnc1CO [Example 46, 5-Amino-6-(hydroxymethyl)-N-[1-(3,4,5-trifluorobenzyl)-1H-imidazol-4-yl]nicotinamide] |  |  | 91%
9 | 20 nM | 30 nM | O=C(Nc1cn(Cc2cc(F)c(F)c(F)c2)cn1)c1ccc(CO)nn1 [Example 85, 6-(Hydroxymethyl)-N-[1-(3,4,5-trifluorobenzyl)-1H-imidazol-4-yl]pyridazine-3-carboxamide] |  |  | 
